From patent US5874445A, “(+) -α- (2,3-dimethoxyphenyl)-1-(2-(4-fluorephenyl) ethyl)-4-piepridinemethanol” (Merrell Pharmaceutical, Inc., priority 1997, dated 1999)
Where two headings read alike, the source gives them in different places. Blank lines part the entries; values can stand above or below the compound they belong to.

Columns and labels:
5HT2 receptor = biological target: T1, 5HT2 receptor (Mus musculus, UniProt P35363); assay: (5-MeO-DMT) head twitch test; format: in vivo, mice; details: ip, read-out: ED50 FOR ABOLITION OF HEAD TWITCH
T1 construct: The administration of 5-methoxy-N,N-dimethyltryptamine 5-MeO-DMT to mice typically produces a characteristic head twitch in the mice; from tissue; host or cells: living mice (in vivo, endogenous receptor)
Description: Psychopharmacol., Vol. 3, pages 89-92, (1979). The administration of 5-methoxy-N,N-dimethyltryptamine 5-MeO-DMT to mice typically produces a characteristic head twitch in the mice. In this test, the mice are administered 5-MeO-DMT and a test compound. An absence of head twitches in the mice is considered to be predictive of the ability of the test compound to antagonize the 5HT2 receptor in vivo.

coronary vessels = details: patients with stable angina, intracoronary infusion, McFadden et al, cited from earlier work
[1] = tested on: preference for both alcohol and cocaine; details: rodent model of drug abuse; Meert et al; cited from earlier work
thrombus formation = details: canine models; Bush et al., Drug Development Research, Vol. 7, 319-340 (1986); cited from earlier work
coronary vessel = details: patients with stable angina; Golino et al, NEJM 1991; 324:641-648; cited from earlier work
[2] = mice, 5-MeO-DMT induced head twitch

T1 sequence (P35363 whole entry): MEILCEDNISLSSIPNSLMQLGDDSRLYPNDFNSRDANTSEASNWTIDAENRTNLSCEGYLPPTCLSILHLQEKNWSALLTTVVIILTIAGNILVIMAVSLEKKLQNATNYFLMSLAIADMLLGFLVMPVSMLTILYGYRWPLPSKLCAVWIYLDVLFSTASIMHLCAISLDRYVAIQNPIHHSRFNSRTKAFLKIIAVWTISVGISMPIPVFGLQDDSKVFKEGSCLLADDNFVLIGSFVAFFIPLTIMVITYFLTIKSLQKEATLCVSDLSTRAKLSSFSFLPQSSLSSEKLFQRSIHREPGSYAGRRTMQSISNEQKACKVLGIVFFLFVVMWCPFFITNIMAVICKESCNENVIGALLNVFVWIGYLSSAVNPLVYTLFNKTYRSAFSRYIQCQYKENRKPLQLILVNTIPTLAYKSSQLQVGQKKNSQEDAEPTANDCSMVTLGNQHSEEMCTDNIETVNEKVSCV

Structure (SMILES): COc1cccc(C(O)C2CCN(CCc3ccccc3)CC2)c1OC (racemic) [Compound C racemic, α-(2,3-dimethoxyphenyl)-1-(2-phenylethyl)-4-piperidinemethanol]
ED50 (5HT2 receptor): 2.04 mg/kg

Structure (SMILES): COc1cccc(C(O)C2CCN(CCc3ccc(F)cc3)CC2)c1OC (single isomer, unassigned) [Invention, (+)-α-(2,3-dimethoxyphenyl)-1-[2-(4-fluorophenyl)ethyl]-4-piperidinemethanol]
ED50 (5HT2 receptor): 0.03 mg/kg

Structure (SMILES): NCCc1c[nH]c2ccc(O)cc12 [serotonin]
anginal attacks during infusions (coronary vessels): experienced anginal attacks during these infusions
constriction of the coronary vessels (coronary vessels; all concentrations tested, NEJM 1991, 324:648-654): induced constriction of the coronary vessels in these patients at all concentrations tested

Structure (SMILES): Cc1nc2sccn2c(=O)c1CCN1CCC(=C(c2ccc(F)cc2)c2ccc(F)cc2)CC1 [ritanserin]
preference for both alcohol and cocaine [1]: abolished the preference for both alcohol and cocaine

ED50 (5HT2 receptor; [2]): 0.87 mg/kg
Structure (SMILES): OC(c1ccccc1)C1CCN(CCc2ccccc2)CC1 (single isomer, unassigned) [Compound B (+)-isomer, α-phenyl-1-(2-phenylethyl)-4-piperidinemethanol]

Structure (SMILES): O=C(c1ccc(F)cc1)C1CCN(CCn2c(=O)[nH]c3ccccc3c2=O)CC1 [Ketanserin]
preventing thrombus formation (thrombus formation): extremely effective in preventing thrombus formation
coronary vessel constriction (coronary vessel): blocked coronary vessel constriction in patients with stable angina

ED50 (5HT2 receptor; [2]): 3.28 mg/kg
Structure (SMILES): OC(c1ccccc1)C1CCN(CCc2ccccc2)CC1 (racemic) [Compound B racemic, α-phenyl-1-(2-phenylethyl)-4-piperidinemethanol]
